Species: Rattus norvegicus
Test: DrugMatrix - Regimen: Daily Repeat
Assay type: toxicity, organism-based, Sprague-Dawley
Design: regimen Daily Repeat, gender Male, age 6-8 weeks
Settings: in vivo, iv, 11 mg/kg, dose level High, vehicle 100 % SALINE; for ABSOLUTE BASOPHIL / ABSOLUTE EOSINOPHIL / ABSOLUTE LYMPHOCYTE / ABSOLUTE MONOCYTE / ABSOLUTE SEGMENTED NEUTROPHIL / BASOPHIL / EOSINOPHIL / ERYTHROCYTE COUNT / HEMATOCRIT / HEMOGLOBIN / LEUKOCYTE COUNT / LYMPHOCYTE / MEAN CORPUSCULAR HEMOGLOBIN / MEAN CORPUSCULAR HEMOGLOBIN CONCENTRATION / MEAN CORPUSCULAR VOLUME / MONOCYTE / NEUTROPHIL / NUCLEATED RED BLOOD CELLS / PLATELET COUNT: tissue Blood; for ALANINE AMINOTRANSFERASE / ALBUMIN / ALKALINE PHOSPHATASE / ASPARTATE AMINOTRANSFERASE / BLOOD UREA NITROGEN / CARBON DIOXIDE / CHLORIDE / CHOLESTEROL / CREATINE PHOSPHOKINASE / CREATININE / GLUCOSE / LACTATE DEHYDROGENASE / LIPASE / PHOSPHORUS / POTASSIUM / SODIUM / TOTAL BILIRUBIN / TOTAL PROTEIN / URIC ACID: tissue Plasma

Nc1ccn([C@@H]2O[C@H](CO)[C@@H](O)C2(F)F)c(=O)n1 [GEMCITABINE]
ABSOLUTE BASOPHIL (72 h, time 3 day): 0 CELLS/uL
ABSOLUTE EOSINOPHIL (72 h, time 3 day): 0 CELLS/uL
ABSOLUTE LYMPHOCYTE (72 h, time 3 day): 4311.33 CELLS/uL
ABSOLUTE MONOCYTE (72 h, time 3 day): 21.67 CELLS/uL
ABSOLUTE SEGMENTED NEUTROPHIL (72 h, time 3 day): 200.33 CELLS/uL
BASOPHIL (72 h, time 3 day): 0%
EOSINOPHIL (72 h, time 3 day): 0%
ERYTHROCYTE COUNT (72 h, time 3 day): 5.19 x10E6/uL
HEMATOCRIT (72 h, time 3 day): 33.27%
HEMOGLOBIN (72 h, time 3 day): 13.03 G/DL
LEUKOCYTE COUNT (72 h, time 3 day): 4.53 x10E3/uL
LYMPHOCYTE (72 h, time 3 day): 95%
MEAN CORPUSCULAR HEMOGLOBIN (72 h, time 3 day): 25.07 pg
MEAN CORPUSCULAR HEMOGLOBIN CONCENTRATION (72 h, time 3 day): 39.2 G/DL
MEAN CORPUSCULAR VOLUME (72 h, time 3 day): 63.93 fL
MONOCYTE (72 h, time 3 day): 0.33%
NEUTROPHIL (72 h, time 3 day): 4.67%
NUCLEATED RED BLOOD CELLS (72 h, time 3 day): 0 /100WBC
PLATELET COUNT (72 h, time 3 day): 706.67 x10E3/uL
ALANINE AMINOTRANSFERASE (72 h, time 3 day): 46.67 u/L
ALBUMIN (72 h, time 3 day): 3.5 G/DL
ALKALINE PHOSPHATASE (72 h, time 3 day): 373 u/L
ASPARTATE AMINOTRANSFERASE (72 h, time 3 day): 100.67 u/L
BLOOD UREA NITROGEN (72 h, time 3 day): 15.67 mg/dL
CARBON DIOXIDE (72 h, time 3 day): 24.33 mmol/L
CHLORIDE (72 h, time 3 day): 107.33 MEQ/L
CHOLESTEROL (72 h, time 3 day): 63.33 mg/dL
CREATINE PHOSPHOKINASE (72 h, time 3 day): 316.67 u/L
CREATININE (72 h, time 3 day): 0.13 mg/dL
GLUCOSE (72 h, time 3 day): 143 mg/dL
LACTATE DEHYDROGENASE (72 h, time 3 day): 80.33 u/L
LIPASE (72 h, time 3 day): 8 u/L
PHOSPHORUS (72 h, time 3 day): 9.73 mg/dL
POTASSIUM (72 h, time 3 day): 5.2 MEQ/L
SODIUM (72 h, time 3 day): 145.57 MEQ/L
TOTAL BILIRUBIN (72 h, time 3 day): 0.17 mg/dL
TOTAL PROTEIN (72 h, time 3 day): 4.97 G/DL
URIC ACID (72 h, time 3 day): 1.3 mg/dL
ABSOLUTE BASOPHIL (120 h, time 5 day): 0 CELLS/uL
ABSOLUTE EOSINOPHIL (120 h, time 5 day): 12.67 CELLS/uL
ABSOLUTE LYMPHOCYTE (120 h, time 5 day): 2696.33 CELLS/uL
ABSOLUTE MONOCYTE (120 h, time 5 day): 10 CELLS/uL
ABSOLUTE SEGMENTED NEUTROPHIL (120 h, time 5 day): 47.67 CELLS/uL
BASOPHIL (120 h, time 5 day): 0%
EOSINOPHIL (120 h, time 5 day): 0.33%
ERYTHROCYTE COUNT (120 h, time 5 day): 8.1 x10E6/uL
HEMATOCRIT (120 h, time 5 day): 50%
HEMOGLOBIN (120 h, time 5 day): 19.4 G/DL
LEUKOCYTE COUNT (120 h, time 5 day): 2.77 x10E3/uL
LYMPHOCYTE (120 h, time 5 day): 97.67%
MEAN CORPUSCULAR HEMOGLOBIN (120 h, time 5 day): 24 pg
MEAN CORPUSCULAR HEMOGLOBIN CONCENTRATION (120 h, time 5 day): 38.9 G/DL
MEAN CORPUSCULAR VOLUME (120 h, time 5 day): 61.67 fL
MONOCYTE (120 h, time 5 day): 0.33%
NEUTROPHIL (120 h, time 5 day): 1.67%
NUCLEATED RED BLOOD CELLS (120 h, time 5 day): 0.33 /100WBC
PLATELET COUNT (120 h, time 5 day): 374.33 x10E3/uL
ALANINE AMINOTRANSFERASE (120 h, time 5 day): 34.67 u/L
ALBUMIN (120 h, time 5 day): 3.5 G/DL
ALKALINE PHOSPHATASE (120 h, time 5 day): 152.67 u/L
ASPARTATE AMINOTRANSFERASE (120 h, time 5 day): 232 u/L
BLOOD UREA NITROGEN (120 h, time 5 day): 36.67 mg/dL
CARBON DIOXIDE (120 h, time 5 day): 26.33 mmol/L
CHLORIDE (120 h, time 5 day): 107 MEQ/L
CHOLESTEROL (120 h, time 5 day): 104.67 mg/dL
CREATINE PHOSPHOKINASE (120 h, time 5 day): 2721.33 u/L
CREATININE (120 h, time 5 day): 0.23 mg/dL
GLUCOSE (120 h, time 5 day): 286.33 mg/dL
LACTATE DEHYDROGENASE (120 h, time 5 day): 384.67 u/L
LIPASE (120 h, time 5 day): 10.33 u/L
PHOSPHORUS (120 h, time 5 day): 10.93 mg/dL
POTASSIUM (120 h, time 5 day): 4.87 MEQ/L
SODIUM (120 h, time 5 day): 146.9 MEQ/L
TOTAL BILIRUBIN (120 h, time 5 day): 0.1 mg/dL
TOTAL PROTEIN (120 h, time 5 day): 6.03 G/DL
URIC ACID (120 h, time 5 day): 1.6 mg/dL

— ChEMBL document CHEMBL3885881, “DrugMatrix”
